Reference: patent EP0240874A1, “Highly resorbable preparation of hymecromone, and method for its production” (Dolorgiet GmbH & Co. KG, priority 1986, dated 1987)

Key:
[1] = cold and warm water; from Beilsteins Handbuch; cited from earlier work
Solubility in water = format: physicochemical; conditions: general statement, no test described

Compound | Löslichkeit in kaltem und warmen Wasser [1] | Löslichkeit in Wasser (Solubility in water)
Cc1cc(=O)oc2cc(O)ccc12 [Hymecromon, 7-Hydroxy-4-methyl-cumarin] | nahezu unlöslich | 
Cc1cc(=O)oc2cc(O)ccc12 [Natriumsalz] |  | gut löslich
